Experimental data: patent US12606594B2, “Heterotandem bicyclic peptide complexes” (BicycleTx Limited, priority 2019, dated 2026)
Several values for one entry are separate records, joined by “and”; a condition that tells them apart may be missing. Equal values may be shown once. Read-outs that look alike come from different tables or passages of the source. Starred links: 1 amine or outer side, 2 acyl side, 3 side chain; linkers in the order of their positions; H or OH if unused. Positions of bridges follow the written chain, without caps; N, C: chain ends. Non-standard residues stand in square brackets, D forms with d. Chains are numbered I, II in the order given. X1 = O=C(CCOCCOCCOCCN(CCOCCOCCOCCn1cc(CCC(=O)[*:2])nn1)CCOCCOCCOCCn1cc(CCC(=O)[*:3])nn1)[*:1]; TATA = O=C(CC[*:1])N1CN(C(=O)CC[*:2])CN(C(=O)CC[*:3])C1; d1Nal = N[C@H](Cc1cccc2ccccc12)C(=O)O; Hyp = O=C(O)[C@@H]1C[C@@H](O)CN1; hArg = N=C(N)NCCCC[C@H](N)C(=O)O; tBuAla = CC(C)(C)C[C@H](N)C(=O)O; Nle = CCCC[C@H](N)C(=O)O

Assays:
[1] = CD137 reporter assay co-culture with tumor cells (Promega CD137 luciferase reporter, Jurkat cells); format: cell-based; settings: read-out: Emax (Fold Induction over background)
Description: (§1) Culture medium, referred to as R1 media, is prepared by adding 1% FBS to RPMI-1640 (component of Promega kit CS196005). Serial dilutions of test articles in R1 are prepared in a sterile 96 well-plate. Add 25 μL per well of test articles or R1 (as a background control) to designated wells in a white cell culture plate. Tumor cells* are harvested and resuspended at a concentration of 400,000 cells/mL in R1 media. Twenty five (25) μL/well of tumor cells are added to the white cell culture plate. Jurkat cells (Promega kit CS196005, 0.5 mL) are thawed in the water bath and then added to 5 ml pre-warmed R1 media. Twenty five (25) […] of Jurkat cells are then added to the white cell culture plate. Incubate the cells and test articles for 6 h at 37° C., 5% CO2. At the end of 6 h, add 75 µL/well Bio-Glo™ reagent (Promega) and incubate for 10 min before reading luminescence in a plate reader (Clariostar, BMG). The fold change relative to cells alone (Jurkat cells+Cell line used in co-culture) is calculated and plotted in GraphPad Prism as log(agonist) vs response to determine EC50 (nM) and Fold Induction over background (Max).
(§2) The tumor cell types used in co-culture for EphA2 are A549, PC-3 and HT29.

[2] = system: CD137; assay: as above; format: cell-based
Description: as §1, §2

[3] = Pharmacokinetics of BCY13272 in SD rats; format: in vivo; settings: 3.6 mg/kg IV infusion (15 min)
Description: Male SD Rats were dosed with heterotandem complex BCY13272 formulated in 25 mM Histidine HCl, 10% sucrose pH 7 by IV bolus or IV infusion (15 minutes). Serial bleeding (about 80 μL blood/time point) was performed via submandibular or saphenous vein at each time point. All blood samples were immediately transferred into prechilled microcentrifuge tubes containing 2 μL K2-EDTA (0.5M) as anti-coagulant and placed on wet ice. Blood samples were immediately processed for plasma by centrifugation at approximately 4° C., 3000 g. The precipitant including internal standard was immediately added into the plasma, mixed well and centrifuged at 12,000 rpm, 4° C. for 10 minutes. The supernatant was transferred into pre-labeled polypropylene microcentrifuge tubes, and then quick-frozen over dry ice. The samples were stored at […] or below as needed until analysis. 7.5 μL of the supernatant samples were directly injected for LC-MS/MS analysis using an Orbitrap Q Exactive in positive ion mode to determine the concentrations of analyte. Plasma concentration versus time data were analyzed by non-compartmental approaches using the Phoenix WinNonlin 6.3 software program. CO, Cl, Vdss, T½, AUC(0-last), AUC(0-inf), MRT(0-last), MRT(0-inf) and graphs of plasma concentration versus time profile were reported.

I: A[hArg]DC[Hyp]LVNPLCLEP[d1Nal]WTC-NH2 / II: Ac-C[tBuAla]PE[dK]PYCFADPY[Nle]CA-NH2 / III: Ac-C[tBuAla]PE[dK]PYCFADPY[Nle]CA-NH2 (linker I:4-I:11-I:18, II:1-II:8-II:15, III:1-III:8-III:15 via TATA (inferred); linker I:N-II:5-III:5 via X1 (inferred)) [BCY13272]
fold induction ([1]; EphA2 cell line A549): 25.7 | fold induction ([1]; EphA2 cell line HT-29): 36.5 | fold induction ([1]; EphA2 cell line PC-3): 44.2 | Emax (Fold Induction over background) ([2]; EphA2 cell line A549): 23.6 and 30.2 | Emax (Fold Induction over background) ([2]; EphA2 cell line HT-29): 26 and 36.4 | Emax (Fold Induction over background) ([2]; EphA2 cell line PC-3): 53 and 44.5 | T½ (terminal half-life) ([3]; 3.6 mg/kg): 2.9 h | clearance ([3]; rat, in vivo, read-out: Clp (clearance)): 7.4 mL/min/kg
